Assays:
Format in all cases: in vivo
[1] = system: Abutilon theophrasti; test: Test Example 4: herbicidal effect by soil treatment (symbol M); conditions: application herbicide amount 320 g/ha
Outline: (§1)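 Seeds were sown in sterilized diluvial soil, covered with about 1.5 cm of soil, and the soil surface was sprayed with a water-diluted emulsion of the compound at a predetermined rate. Plants grew in a greenhouse at 25° C. to 30° C.; effects were scored visually 3 weeks after application.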

[2] = system: rice plant; test: Test Example 5: effect on crop by foliage application, plastic box (symbol b); conditions: 320 g/ha, 3 weeks after application
Outline: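 Seeds were sown in spots in sterilized diluvial soil held in a plastic box 21 cm × 13 cm × 7 cm deep, covered with about 1.5 cm of soil, and grown in a greenhouse at 25° C. to 30° C.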

[3] = system: Setaria viridis; test: Test Example 4: herbicidal effect by soil treatment (symbol G); conditions: application herbicide amount 320 g/ha
Outline: as §1

[4] = system: Monochoria vaginalis; test: Test Example 2: herbicidal activity, application during weed generation in submerged conditions (symbol C); conditions: Table 23; application herbicide amount 320 g/ha; grade 0-5 by criteria of Test Example 1
Outline: (§2)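 Alluvial soil in pots was flooded to a 4 cm water depth and sown with a mix of the three weed species, then grown in a greenhouse at 25° C. to 30° C. At the one- to two-leaf stage, an emulsifiable formulation diluted in water to a set dose was applied to the water surface. Effects were scored visually 3 weeks later.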

[5] = system: Apera spica-venti; test: Test Example 4: herbicidal effect by soil treatment (symbol L); conditions: application herbicide amount 320 g/ha
Outline: as §1

[6] = system: Echinochloa oryzacola Vasing.; test: Test Example 2: herbicidal activity, application during weed generation in submerged conditions (symbol A); conditions: Table 23; application herbicide amount 320 g/ha; grade 0-5 by criteria of Test Example 1
Outline: as §2

[7] = system: beet; test: Test Example 4: effect on crop by soil treatment (symbol f); conditions: application herbicide amount 320 g/ha
Outline: (§3)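 Diluvial soil (sterilized) in boxes; seeds placed spot-wise alongside weed species; ~1.5 cm covering soil. Greenhouse, 25–30° C.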

[8] = system: Apera spica-venti; test: Test Example 5: herbicidal effect by foliage application, plastic box (symbol L); conditions: 320 g/ha, 3 weeks after application
Outline: (§4)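 Post-emergence spray; diluvial soil (sterilized), ~1.5 cm seed cover; greenhouse 25–30° C; 14-day-old plants; water-diluted emulsion at predetermined dose; visual score at 3 wk post-treatment.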

[9] = system: Abutilon theophrasti; test: Test Example 5: herbicidal effect by foliage application, plastic box (symbol M); conditions: 320 g/ha, 3 weeks after application
Outline: as §4

[10] = system: Veronica persica; test: Test Example 5: herbicidal effect by foliage application, plastic box (symbol R); conditions: 320 g/ha, 3 weeks after application
Outline: as §4

[11] = system: soybean; test: Test Example 4: effect on crop by soil treatment (symbol d); conditions: application herbicide amount 320 g/ha
Outline: as §3

[12] = system: Chenopodium album; test: Test Example 5: herbicidal effect by foliage application, plastic box (symbol O); conditions: 320 g/ha, 3 weeks after application
Outline: as §4

[13] = system: Digitaria ciliaris; test: Test Example 4: herbicidal effect by soil treatment (symbol F); conditions: application herbicide amount 320 g/ha
Outline: as §1

[14] = system: Echinochloa crus-galli var. crus-galli; test: Test Example 3: herbicidal effect by foliage application, Wagner pot (symbol H); conditions: application herbicide amount 320 g/ha, Table 24
Outline: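 Weeds and rice were sown in alluvial soil under 0.1–0.5 cm of standing water and grown for 14 days in a 25–30 °C greenhouse. An emulsion of the compound, diluted in water to a set dose, was sprayed evenly onto the foliage. Effect was scored against fixed criteria 3 weeks after treatment.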

[15] = system: Avena fatua; test: Test Example 5: herbicidal effect by foliage application, plastic box (symbol I); conditions: 320 g/ha, 3 weeks after application
Outline: as §4

[16] = system: Lolium multiflorum Lam.; test: Test Example 4: herbicidal effect by soil treatment (symbol K); conditions: application herbicide amount 320 g/ha
Outline: as §1

[17] = system: Stellaria media; test: Test Example 5: herbicidal effect by foliage application, plastic box (symbol P); conditions: 320 g/ha, 3 weeks after application
Outline: as §4

Compound | Herbicidal effect grade, M: Abutilon theophrasti [1] | b: directly sowed rice plant, effect on crop grade [2] | Herbicidal effect grade, G: Setaria viridis [3] | Herbicidal effect grade, C: Monochoria vaginalis [4] | Herbicidal effect grade, L: Apera spica-venti [5] | Herbicidal effect grade, A: Echinochloa oryzacola Vasing. [6] | Effect on crop grade, f: beet [7] | L: Apera spica-venti, herbicidal effect grade [8] | M: Abutilon theophrasti, herbicidal effect grade [9] | R: Veronica persica, herbicidal effect grade [10] | Effect on crop grade, d: soybean [11] | O: Chenopodium album, herbicidal effect grade [12] | Herbicidal effect grade, F: Digitaria ciliaris [13] | H (Echinochloa crus-galli var. crus-galli) herbicidal effect grade [14] | I: Avena fatua, herbicidal effect grade [15] | Herbicidal effect grade, K: Lolium multiflorum Lam. [16] | P: Stellaria media, herbicidal effect grade [17]
COCCON=C(C)CC1CC(O)=C(c2c(C)cc(-n3cc(Cl)cn3)cc2C)C1=O (centres unmarked) [9-016] | 0 (Herbicidal ratio of 5% or lower (almost no effect)) | 5 (Herbicidal ratio of 90% or more (almost completely withered)) | 5 (Herbicidal ratio of 90% or more (almost completely withered)) | 1 (Herbicidal ratio of 5% or higher and lower than 20%) | 1 (Herbicidal ratio of 5% or higher and lower than 20%) | 5 (Herbicidal ratio of 90% or more (almost completely withered)) | 0 (Herbicidal ratio of 5% or lower (almost no effect)) | 5 (Herbicidal ratio of 90% or more (almost completely withered)) | 0 (Herbicidal ratio of 5% or lower (almost no effect)) | 1 (Herbicidal ratio of 5% or higher and lower than 20%) | 0 (Herbicidal ratio of 5% or lower (almost no effect)) | 2 (Herbicidal ratio of 20% or higher and lower than 40%) | 5 (Herbicidal ratio of 90% or more (almost completely withered)) | 5 (Herbicidal ratio of 90% or more (almost completely withered)) | 5 (Herbicidal ratio of 90% or more (almost completely withered)) | 5 (Herbicidal ratio of 90% or more (almost completely withered)) | 3 (Herbicidal ratio of 40% or higher and lower than 70%)
COCCON=C(C)CC1CC(O)=C(c2c(C)cc(Br)cc2C)C1=O (centres unmarked) [9-017] | 0 (Herbicidal ratio of 5% or lower (almost no effect)) | 5 (Herbicidal ratio of 90% or more (almost completely withered)) | 0 (Herbicidal ratio of 5% or lower (almost no effect)) | 0 (Herbicidal ratio of 5% or lower (almost no effect)) | 0 (Herbicidal ratio of 5% or lower (almost no effect)) | 1 (Herbicidal ratio of 5% or higher and lower than 20%) | 0 (Herbicidal ratio of 5% or lower (almost no effect)) | 3 (Herbicidal ratio of 40% or higher and lower than 70%) | 0 (Herbicidal ratio of 5% or lower (almost no effect)) | 0 (Herbicidal ratio of 5% or lower (almost no effect)) | 0 (Herbicidal ratio of 5% or lower (almost no effect)) | 0 (Herbicidal ratio of 5% or lower (almost no effect)) | 4 (Herbicidal ratio of 70% or higher and lower than 90%) | 5 (Herbicidal ratio of 90% or more (almost completely withered)) | 4 (Herbicidal ratio of 70% or higher and lower than 90%) | 0 (Herbicidal ratio of 5% or lower (almost no effect)) | 0 (Herbicidal ratio of 5% or lower (almost no effect))
COCCON=C(CC1CC(O)=C(c2c(C)cc(Br)cc2C)C1=O)C1CC1 (centres unmarked) [9-019] | 0 (Herbicidal ratio of 5% or lower (almost no effect)) | 3 (Herbicidal ratio of 40% or higher and lower than 70%) | 5 (Herbicidal ratio of 90% or more (almost completely withered)) | 0 (Herbicidal ratio of 5% or lower (almost no effect)) | 0 (Herbicidal ratio of 5% or lower (almost no effect)) | 3 (Herbicidal ratio of 40% or higher and lower than 70%) | 0 (Herbicidal ratio of 5% or lower (almost no effect)) | 1 (Herbicidal ratio of 5% or higher and lower than 20%) | 0 (Herbicidal ratio of 5% or lower (almost no effect)) | 0 (Herbicidal ratio of 5% or lower (almost no effect)) | 0 (Herbicidal ratio of 5% or lower (almost no effect)) | 0 (Herbicidal ratio of 5% or lower (almost no effect)) | 0 (Herbicidal ratio of 5% or lower (almost no effect)) | 5 (Herbicidal ratio of 90% or more (almost completely withered)) | 4 (Herbicidal ratio of 70% or higher and lower than 90%) | 3 (Herbicidal ratio of 40% or higher and lower than 70%) | 0 (Herbicidal ratio of 5% or lower (almost no effect))
COCCON=C(CC1CC(O)=C(c2c(C)cc(-n3cc(Cl)cn3)cc2C)C1=O)C1CC1 (centres unmarked) [9-020] | 3 (Herbicidal ratio of 40% or higher and lower than 70%) | 5 (Herbicidal ratio of 90% or more (almost completely withered)) | 5 (Herbicidal ratio of 90% or more (almost completely withered)) | 0 (Herbicidal ratio of 5% or lower (almost no effect)) | 4 (Herbicidal ratio of 70% or higher and lower than 90%) | 4 (Herbicidal ratio of 70% or higher and lower than 90%) | 0 (Herbicidal ratio of 5% or lower (almost no effect)) | 4 (Herbicidal ratio of 70% or higher and lower than 90%) | 4 (Herbicidal ratio of 70% or higher and lower than 90%) | 3 (Herbicidal ratio of 40% or higher and lower than 70%) | 0 (Herbicidal ratio of 5% or lower (almost no effect)) | 3 (Herbicidal ratio of 40% or higher and lower than 70%) | 4 (Herbicidal ratio of 70% or higher and lower than 90%) | 5 (Herbicidal ratio of 90% or more (almost completely withered)) | 5 (Herbicidal ratio of 90% or more (almost completely withered)) | 5 (Herbicidal ratio of 90% or more (almost completely withered)) | 3 (Herbicidal ratio of 40% or higher and lower than 70%)
